Biological target: T1, RecBCD enzyme (RecB subunit) (Escherichia coli, UniProt P08394)
T1 construct: RecBCD holoenzyme (330 kDa, three subunits); with RecC and RecD
Experiment: RecBCD nuclease assay with [3H] phage T7 DNA, […] ATP; unaffected by Triton X-100
Type: biochemical

T1 sequence (P08394 2-1180): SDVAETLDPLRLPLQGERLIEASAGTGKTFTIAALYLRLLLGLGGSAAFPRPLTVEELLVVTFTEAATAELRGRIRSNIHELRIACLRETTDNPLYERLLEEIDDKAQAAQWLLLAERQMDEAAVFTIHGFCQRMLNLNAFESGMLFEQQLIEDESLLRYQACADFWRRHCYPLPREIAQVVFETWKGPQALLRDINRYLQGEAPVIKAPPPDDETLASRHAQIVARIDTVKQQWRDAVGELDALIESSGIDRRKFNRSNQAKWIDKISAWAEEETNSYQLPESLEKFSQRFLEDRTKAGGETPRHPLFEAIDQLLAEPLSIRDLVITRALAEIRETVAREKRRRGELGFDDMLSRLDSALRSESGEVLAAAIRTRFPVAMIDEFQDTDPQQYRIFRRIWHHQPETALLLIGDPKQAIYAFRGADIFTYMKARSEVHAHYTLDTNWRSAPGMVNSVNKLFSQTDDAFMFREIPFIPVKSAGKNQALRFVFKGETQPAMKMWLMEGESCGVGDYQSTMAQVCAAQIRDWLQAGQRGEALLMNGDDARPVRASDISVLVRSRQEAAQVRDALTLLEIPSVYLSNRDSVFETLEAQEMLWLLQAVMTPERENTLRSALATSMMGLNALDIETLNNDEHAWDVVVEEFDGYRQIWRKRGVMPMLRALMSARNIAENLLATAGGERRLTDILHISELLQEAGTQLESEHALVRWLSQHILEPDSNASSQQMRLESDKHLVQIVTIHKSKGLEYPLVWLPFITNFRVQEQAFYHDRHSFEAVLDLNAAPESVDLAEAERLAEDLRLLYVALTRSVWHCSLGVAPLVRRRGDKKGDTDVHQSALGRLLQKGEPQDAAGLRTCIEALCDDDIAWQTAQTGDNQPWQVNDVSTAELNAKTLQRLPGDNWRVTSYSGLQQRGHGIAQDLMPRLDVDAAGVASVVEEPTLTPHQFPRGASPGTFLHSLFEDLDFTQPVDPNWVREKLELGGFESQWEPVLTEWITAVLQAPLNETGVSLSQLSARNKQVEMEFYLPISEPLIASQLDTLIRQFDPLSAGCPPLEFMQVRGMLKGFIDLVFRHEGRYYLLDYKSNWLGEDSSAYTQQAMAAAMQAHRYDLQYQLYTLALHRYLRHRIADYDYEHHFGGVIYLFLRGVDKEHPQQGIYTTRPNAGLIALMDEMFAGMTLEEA
T1 sequence (P07648 whole entry, further chain): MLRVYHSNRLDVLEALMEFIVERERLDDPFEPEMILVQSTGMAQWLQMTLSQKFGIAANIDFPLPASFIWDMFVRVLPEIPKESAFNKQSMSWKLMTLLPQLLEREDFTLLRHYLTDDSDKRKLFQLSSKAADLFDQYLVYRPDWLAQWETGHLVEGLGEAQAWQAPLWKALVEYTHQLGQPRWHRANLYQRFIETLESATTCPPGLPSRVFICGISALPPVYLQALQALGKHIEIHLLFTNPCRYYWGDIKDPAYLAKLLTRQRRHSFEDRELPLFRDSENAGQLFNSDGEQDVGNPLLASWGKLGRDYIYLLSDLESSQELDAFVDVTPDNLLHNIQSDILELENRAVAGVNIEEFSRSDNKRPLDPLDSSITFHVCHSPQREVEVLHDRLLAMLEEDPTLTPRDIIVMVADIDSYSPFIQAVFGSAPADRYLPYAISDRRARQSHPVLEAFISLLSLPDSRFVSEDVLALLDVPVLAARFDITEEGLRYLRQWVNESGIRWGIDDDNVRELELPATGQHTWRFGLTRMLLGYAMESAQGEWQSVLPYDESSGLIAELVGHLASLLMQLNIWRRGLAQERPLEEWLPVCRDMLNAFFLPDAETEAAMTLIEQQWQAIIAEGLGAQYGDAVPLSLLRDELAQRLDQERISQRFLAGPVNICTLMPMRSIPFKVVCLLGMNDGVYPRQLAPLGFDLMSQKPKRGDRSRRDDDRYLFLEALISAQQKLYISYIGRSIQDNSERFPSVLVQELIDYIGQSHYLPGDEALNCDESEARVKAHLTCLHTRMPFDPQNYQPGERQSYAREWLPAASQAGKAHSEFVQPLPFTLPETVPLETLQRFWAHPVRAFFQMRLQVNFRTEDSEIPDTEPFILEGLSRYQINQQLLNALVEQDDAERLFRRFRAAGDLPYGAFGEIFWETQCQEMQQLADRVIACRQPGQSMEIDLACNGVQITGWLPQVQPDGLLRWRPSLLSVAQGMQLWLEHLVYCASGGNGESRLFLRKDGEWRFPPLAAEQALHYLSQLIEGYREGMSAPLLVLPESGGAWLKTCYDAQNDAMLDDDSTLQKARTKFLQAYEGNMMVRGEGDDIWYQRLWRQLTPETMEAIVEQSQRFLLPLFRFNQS
T1 sequence (P04993 whole entry, further chain): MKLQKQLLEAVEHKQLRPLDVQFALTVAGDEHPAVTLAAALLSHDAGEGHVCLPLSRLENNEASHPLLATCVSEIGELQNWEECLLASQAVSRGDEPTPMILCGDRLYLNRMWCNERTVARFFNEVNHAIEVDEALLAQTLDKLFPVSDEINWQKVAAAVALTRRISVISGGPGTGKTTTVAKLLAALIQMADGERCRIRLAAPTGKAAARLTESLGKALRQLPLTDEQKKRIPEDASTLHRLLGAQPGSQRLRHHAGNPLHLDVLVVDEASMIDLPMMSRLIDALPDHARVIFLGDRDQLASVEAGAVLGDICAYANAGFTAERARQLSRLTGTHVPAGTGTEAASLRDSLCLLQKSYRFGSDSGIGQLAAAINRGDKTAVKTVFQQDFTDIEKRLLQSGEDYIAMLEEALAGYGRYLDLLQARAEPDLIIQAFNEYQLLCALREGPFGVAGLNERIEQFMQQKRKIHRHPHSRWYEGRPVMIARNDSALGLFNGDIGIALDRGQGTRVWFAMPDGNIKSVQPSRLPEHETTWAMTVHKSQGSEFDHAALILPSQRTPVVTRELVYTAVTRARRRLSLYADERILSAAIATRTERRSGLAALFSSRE

## CCC(Sc1nnc2n(CCOc3ccccc3Cl)c3ccccc3n12)C(=O)O (stereo not shown) [NSAC1003, 2-({7-[2-(2-chlorophenoxy)ethyl]-2,4,5,7-tetraazatricyclo[6.4.0.0^2,^6]dodeca-1(8),3,5,9,11-pentaen-3-yl}sulfanyl)butanoic acid]
  IC50: 6.3 ± 0.3 µM

Source: publication PMC7641324, “Small-molecule sensitization of RecBCD helicase–nuclease to a Chi hotspot-activated state” (Nucleic Acids Research, 2020)
